Test results published in ChEMBL document CHEMBL1201862, “PubChem BioAssay data set” (2004).
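How tested: cells in 96-well plates exposed to compound for 48 hours at five concentrations. Abbreviation: GI50, concentration required for 50% inhibition of growth.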 Calls of active or inactive are those of the source. Cut-off read from the data, not from the text of the source: active = GI50 up to about 1.1 µM and inactive = higher.

Legend:
Experiment in all cases: NCI tumour cell line growth inhibition, 48 h
786-0 = test system: 786-0
A498 = test system: A498
A549 = test system: A549
ACHN = test system: ACHN
BT-549 = test system: BT-549
CAKI-1 = test system: CAKI-1
CCRF-CEM = test system: CCRF-CEM
COLO 205 = test system: COLO 205
DU-145 = test system: DU-145
HCT-116 = test system: HCT-116
HCT-15 = test system: HCT-15
HL-60 = test system: HL-60
HOP-62 = test system: HOP-62
HOP-92 = test system: HOP-92
HT-29 = test system: HT-29
Hs-578T = test system: Hs-578T
IGROV-1 = test system: IGROV-1
K562 = test system: K562
KM12 = test system: KM12
LOX IMVI = test system: LOX IMVI
M14 = test system: M14
MCF7 = test system: MCF7
MDA-MB-435 = test system: MDA-MB-435
MDA-N = test system: MDA-N
MOLT-4 = test system: MOLT-4
Malme-3M = test system: Malme-3M
NCI-H23 = test system: NCI-H23
NCI-H522 = test system: NCI-H522
NCI/ADR-RES = test system: NCI/ADR-RES
OVCAR-3 = test system: OVCAR-3
OVCAR-4 = test system: OVCAR-4
OVCAR-5 = test system: OVCAR-5
OVCAR-8 = test system: OVCAR-8
PC-3 = test system: PC-3
RPMI-8226 = test system: RPMI-8226
RXF 393 = test system: RXF 393
SF-268 = test system: SF-268
SF-295 = test system: SF-295
SF-539 = test system: SF-539
SK-MEL-28 = test system: SK-MEL-28
SK-MEL-2 = test system: SK-MEL-2
SK-MEL-5 = test system: SK-MEL-5
SK-OV-3 = test system: SK-OV-3
SN12C = test system: SN12C
SNB-19 = test system: SNB-19
SNB-75 = test system: SNB-75
SR = test system: SR
SW-620 = test system: SW-620
T47D = test system: T47D
UACC-62 = test system: UACC-62
UO-31 = test system: UO-31
EKVX = test system: EKVX
HCC 2998 = test system: HCC 2998
MDA-MB-231 = test system: MDA-MB-231
NCI-H226 = test system: NCI-H226
NCI-H460 = test system: NCI-H460
TK-10 = test system: TK-10
U-251 = test system: U-251
UACC-257 = test system: UACC-257

Compound: COc1ccc(C)cc1NC(=S)N/N=C/c1ccc(SC)cc1
- GI50 (786-0): 83.6 µM (inactive)
- GI50 (A498): > 100 µM (inactive)
- GI50 (A549): > 100 µM (inactive)
- GI50 (ACHN): > 100 µM (inactive)
- GI50 (BT-549): 49.3 µM (inactive)
- GI50 (CAKI-1): 47.6 µM (inactive)
- GI50 (CCRF-CEM): 54.8 µM (inactive)
- GI50 (COLO 205): 40.1 µM (inactive)
- GI50 (DU-145): 66.8 µM (inactive)
- GI50 (HCT-116): 69.3 µM (inactive)
- GI50 (HCT-15): 39.6 µM
- GI50 (HL-60): 31.8 µM (inactive)
- GI50 (HOP-62): 28.8 µM (inactive)
- GI50 (HOP-92): 93.5 µM (inactive)
- GI50 (HT-29): 34.1 µM (inactive)
- GI50 (Hs-578T): > 100 µM (inactive)
- GI50 (IGROV-1): 42.8 µM (inactive)
- GI50 (K562): 35.4 µM (inactive)
- GI50 (KM12): 67.5 µM (inactive)
- GI50 (LOX IMVI): 59.6 µM (inactive)
- GI50 (M14): 25.5 µM (inactive)
- GI50 (MCF7): > 100 µM (inactive)
- GI50 (MDA-MB-435): 38.4 µM (inactive)
- GI50 (MDA-N): 36.3 µM (inactive)
- GI50 (MOLT-4): 45.4 µM (inactive)
- GI50 (Malme-3M): 96.4 µM (inactive)
- GI50 (NCI-H23): 50.2 µM (inactive)
- GI50 (NCI-H522): 82.2 µM (inactive)
- GI50 (NCI/ADR-RES): 60.1 µM (inactive)
- GI50 (OVCAR-3): 38.9 µM (inactive)
- GI50 (OVCAR-4): 57.8 µM (inactive)
- GI50 (OVCAR-5): 25.1 µM (inactive)
- GI50 (OVCAR-8): 57.1 µM (inactive)
- GI50 (PC-3): 75 µM (inactive)
- GI50 (RPMI-8226): 27.9 µM (inactive)
- GI50 (RXF 393): 58.5 µM (inactive)
- GI50 (SF-268): > 100 µM (inactive)
- GI50 (SF-295): 69.5 µM (inactive)
- GI50 (SF-539): 27.8 µM (inactive)
- GI50 (SK-MEL-28): 86.7 µM (inactive)
- GI50 (SK-MEL-2): 55.6 µM (inactive)
- GI50 (SK-MEL-5): 21.6 µM (inactive)
- GI50 (SK-OV-3): 19.5 µM (inactive)
- GI50 (SN12C): > 100 µM (inactive)
- GI50 (SNB-19): > 100 µM (inactive)
- GI50 (SNB-75): > 100 µM (inactive)
- GI50 (SR): 38.5 µM (inactive)
- GI50 (SW-620): 53.8 µM (inactive)
- GI50 (T47D): 60.7 µM (inactive)
- GI50 (UACC-62): > 100 µM (inactive)
- GI50 (UO-31): 84.3 µM (inactive)

Compound: CCCCn1c(CSc2ccc(Cl)cc2)c(C(=O)OCC)c2cc(OC)c(Br)cc21
- GI50 (786-0): > 100 µM (inactive)
- GI50 (A498): > 100 µM (inactive)
- GI50 (A549): > 100 µM (inactive)
- GI50 (ACHN): > 100 µM (inactive)
- GI50 (BT-549): > 100 µM (inactive)
- GI50 (CAKI-1): 31.5 µM (inactive)
- GI50 (CCRF-CEM): > 100 µM (inactive)
- GI50 (COLO 205): > 100 µM (inactive)
- GI50 (DU-145): > 100 µM (inactive)
- GI50 (EKVX): > 100 µM (inactive)
- GI50 (HCC 2998): > 100 µM (inactive)
- GI50 (HCT-116): > 100 µM (inactive)
- GI50 (HCT-15): > 100 µM
- GI50 (HL-60): > 100 µM (inactive)
- GI50 (HOP-62): > 100 µM (inactive)
- GI50 (Hs-578T): > 100 µM (inactive)
- GI50 (IGROV-1): > 100 µM (inactive)
- GI50 (K562): > 100 µM (inactive)
- GI50 (KM12): > 100 µM (inactive)
- GI50 (LOX IMVI): > 100 µM (inactive)
- GI50 (M14): > 100 µM (inactive)
- GI50 (MDA-MB-231): > 100 µM (inactive)
- GI50 (MDA-MB-435): > 100 µM (inactive)
- GI50 (MDA-N): > 100 µM (inactive)
- GI50 (MOLT-4): > 100 µM (inactive)
- GI50 (Malme-3M): > 100 µM (inactive)
- GI50 (NCI-H226): > 100 µM (inactive)
- GI50 (NCI-H23): > 100 µM (inactive)
- GI50 (NCI-H460): > 100 µM (inactive)
- GI50 (NCI-H522): > 100 µM (inactive)
- GI50 (NCI/ADR-RES): > 100 µM (inactive)
- GI50 (OVCAR-3): > 100 µM (inactive)
- GI50 (OVCAR-4): > 100 µM (inactive)
- GI50 (OVCAR-5): > 100 µM (inactive)
- GI50 (OVCAR-8): > 100 µM (inactive)
- GI50 (PC-3): > 100 µM (inactive)
- GI50 (RPMI-8226): > 100 µM (inactive)
- GI50 (SF-268): > 100 µM (inactive)
- GI50 (SF-295): > 100 µM (inactive)
- GI50 (SK-MEL-28): > 100 µM (inactive)
- GI50 (SK-MEL-2): > 100 µM (inactive)
- GI50 (SK-MEL-5): > 100 µM (inactive)
- GI50 (SK-OV-3): > 100 µM (inactive)
- GI50 (SN12C): > 100 µM (inactive)
- GI50 (SNB-19): > 100 µM (inactive)
- GI50 (SNB-75): > 100 µM (inactive)
- GI50 (SR): 88.7 µM (inactive)
- GI50 (SW-620): > 100 µM (inactive)
- GI50 (T47D): > 100 µM (inactive)
- GI50 (TK-10): > 100 µM (inactive)
- GI50 (U-251): > 100 µM (inactive)
- GI50 (UACC-257): > 100 µM (inactive)
- GI50 (UACC-62): > 100 µM (inactive)
- GI50 (UO-31): > 100 µM (inactive)

Compound: Cc1ccc(S(=O)(=O)NC(=O)NC(Cc2ccc(O)cc2)C(=O)O)cc1 (centres undefined)
- GI50 (786-0): > 100 µM (inactive)
- GI50 (A549): > 100 µM (inactive)
- GI50 (BT-549): > 100 µM (inactive)
- GI50 (CCRF-CEM): > 100 µM (inactive)
- GI50 (COLO 205): > 100 µM (inactive)
- GI50 (DU-145): > 100 µM (inactive)
- GI50 (HCT-116): > 100 µM (inactive)
- GI50 (HCT-15): > 100 µM
- GI50 (HL-60): > 100 µM (inactive)
- GI50 (HOP-62): > 100 µM (inactive)
- GI50 (HOP-92): > 100 µM (inactive)
- GI50 (HT-29): > 100 µM (inactive)
- GI50 (Hs-578T): > 100 µM (inactive)
- GI50 (IGROV-1): > 100 µM (inactive)
- GI50 (K562): > 100 µM (inactive)
- GI50 (KM12): > 100 µM (inactive)
- GI50 (LOX IMVI): > 100 µM (inactive)
- GI50 (M14): > 100 µM (inactive)
- GI50 (MDA-MB-231): > 100 µM (inactive)
- GI50 (MDA-N): > 100 µM (inactive)
- GI50 (MOLT-4): > 100 µM (inactive)
- GI50 (Malme-3M): > 100 µM (inactive)
- GI50 (NCI-H23): > 100 µM (inactive)
- GI50 (NCI-H460): > 100 µM (inactive)
- GI50 (NCI-H522): > 100 µM (inactive)
- GI50 (NCI/ADR-RES): > 100 µM (inactive)
- GI50 (OVCAR-4): > 100 µM (inactive)
- GI50 (OVCAR-5): > 100 µM (inactive)
- GI50 (OVCAR-8): > 100 µM (inactive)
- GI50 (PC-3): > 100 µM (inactive)
- GI50 (RPMI-8226): > 100 µM (inactive)
- GI50 (RXF 393): > 100 µM (inactive)
- GI50 (SF-268): > 100 µM (inactive)
- GI50 (SF-295): > 100 µM (inactive)
- GI50 (SF-539): > 100 µM (inactive)
- GI50 (SK-MEL-28): > 100 µM (inactive)
- GI50 (SK-MEL-2): > 100 µM (inactive)
- GI50 (SK-MEL-5): > 100 µM (inactive)
- GI50 (SK-OV-3): > 100 µM (inactive)
- GI50 (SN12C): > 100 µM (inactive)
- GI50 (SNB-19): > 100 µM (inactive)
- GI50 (SNB-75): > 100 µM (inactive)
- GI50 (SR): > 100 µM (inactive)
- GI50 (SW-620): > 100 µM (inactive)
- GI50 (T47D): > 100 µM (inactive)
- GI50 (TK-10): > 100 µM (inactive)
- GI50 (U-251): > 100 µM (inactive)
- GI50 (UACC-257): > 100 µM (inactive)
- GI50 (UO-31): > 100 µM (inactive)
